{"source": "patent US20110081298A1", "about": "“RATIOMETRIC BIOLUMINESCENT SENSOR FOR IMAGINING OXIDATIVE STRESS” (priority 2009, published 2011)", "key": {"HeLa-fR cells [1]": {"test_system": "HeLa-fR cells", "experiment": "RLuc8/fLuc bioluminescence and RLuc8:fLuc ratio in HeLa-fR cells (Dual-Glo)", "format": "cell-based, human", "conditions": "for RLuc8:fLuc ratio of STS-treated cells with inhibitor/scavenger: inhibitor 1 hour before 10 μM STS for 24 hours, working concentrations of Table 7", "procedure": "To induce cellular stress, HeLa cells were treated with Staurosporine (STS), hydrogen peroxide, or hypoxanthine and xanthine oxidase for 0 to 24 hours at concentrations indicated in Table 7. Stressed and unstressed cells were also incubated with inhibitors that target various intracellular protein degradation/modification pathways. The specific compounds/proteins that were utilized as inhibitors and the respective final working concentrations are also listed in Table 7. Inhibitors were added to cells 1-hr prior to adding inducers of cellular stress and left in the media for the duration of the treatment. Analogous controls were conducted in the absence of stress inducers.\n(§1) To induce caspase dependent PCD, cells were treated with staurosporine (STS), Doxorubicin (DOX), or camptothecin (CPT) (Sigma, St. Louis, Mo.) in complete medium at indicated concentrations and time points. To induce caspase-independent PCD, cells were treated with sodium selenite (SSe, MP Biomedicals, Solon, Ohio) or resveratrol (Res, Enzo Life Sciences, Plymouth Meeting, Pa.) in complete medium at indicated concentrations and time points. In studies where allopurinol (Allo, MP Biomedicals) is used as an inhibitor, it was added at a final concentration of 100 μM to cells in complete medium for 1 hour prior to the addition of the death-inducing drugs and remained in the medium throughout the study.\n(§2) Unless otherwise noted, bioluminescence assays were performed 24 hours after plating 10,000 HeLa-fR cells/well in a white-walled 96 well tissue culture plate (BD Biosciences, Franklin Lakes, N.J., USA)."}, "caspases 3 and 7": {"test_system": "caspases 3 and 7", "experiment": "Caspase-Glo 3/7 assay, HeLa-fR cells", "format": "cell-based, human", "procedure": "Caspase Activity: PCD was induced (as described above) 24 hours after plating 10,000 cells/well in white-walled 96 well tissue culture plates (BD Biosciences). After indicated treatment times, the Caspase 3/7-Glo Assay (Promega) was performed according to the manufacturer's protocol and bioluminescence measurements were obtained from and Infinite 200 plate reader (Tecan). All values were normalized to controls (i.e. pre-treatment values)."}, "intracellular H2O2 [2]": {"test_system": "intracellular H2O2", "experiment": "Intracellular H2O2 by CM-H2DCFDA, HeLa-fR cells", "format": "cell-based, human", "procedure": "Catalase and Allopurinol: HeLa-fR cells were plated at a density of 120,000 cells per well of a 12 well tissue culture plate (BD Biosciences). 24 hours later, the cells were incubated with 10 μM CM-H2DCFDA (Invitrogen) for 30 minutes at 37° C. Cells were then treated with PBS (pH 7.4), 50 U/mL catalase or 100 μM allopurinol for one hour. PBS (pH 7.4) or 10 μM STS was subsequently added to the cells, and all compounds remained on the cells for 24 hours. Intracellular H2O2 levels were determined by subjecting the cells to flow cytometry using a Guava EasyCyte (Guava Technologies). Analysis of flow cytometry data was accomplished using FlowJo software (Treestar)."}, "HeLa-fR tumor xenografts": {"test_system": "HeLa-fR tumor xenografts", "experiment": "Bioluminescence imaging of HeLa-fR tumor xenografts in nude mice", "format": "in vivo", "conditions": "intratumoral, 24 hours", "excerpt": "Five week old female nude mice (Charles River Laboratories International LLC, Wilmington, Mass.) were obtained and given free access to food and water. […] For tumor induction, 2.5×10^6 HeLa-fR cells were resuspended in PBS (pH 7.4) and subcutaneously implanted in the lower right flank of lightly anesthetized mice (1% isoflurane/oxygen mixture). Once the tumors reached ˜1 cm in diameter, each group was imaged prior to any inhibitor/drug treatment. Briefly, the animals were i.p. injected with 200 μL of sterile 15 mg/mL luciferin (Biosynth, Itasca, Ill.) in PBS (pH 7.4) and imaged using an IVIS Lumina II (Caliper Life Sciences, Hopkinton, Mass.) under anesthesia (2.5% isoflurane/oxygen mixture). The substrate was allowed to clear for 3 hours before the animals received an i.v. injection of 100 μL of 500 μg/mL sterile coelenterazine (NanoLight, Pinetop, Ariz.) in a 20/20/60 mixture of USP grade ethanol/propylene glycol/PBS and imaged using an IVIS Lumina II under anesthesia (2.5% isoflurane/oxygen mixture). Immediately following the second imaging session animals were divided into 4 groups (PBS/PBS, PBS/STS, Allo/PBS, Allo/STS) and the inhibitor (1 mM Allopurinol) or control (PBS, pH 7.4) was intratumorally injected. After 1 hour, the cell death inducer (500 μM STS) or control (PBS, pH 7.4) was intratumorally injected. All intratumoral injections were of a volume of 25 μL. 24 hours later, the animals were imaged in the same manner as stated previously.\nAll image analysis was performed using Living Image Software (Caliper Life Sciences). Images were first background subtracted (treating the animal body as the background) and automatic (5% threshold) ROIs were generated around each tumor. Bioluminescent counts were recorded and used in the ratio calculations. For each group, data was normalized to the day 1 ratio values."}, "293T/17-fR cells": {"test_system": "293T/17-fR cells", "experiment": "RLuc8:fLuc ratio in 293T/17-fR cells (Dual-Glo)", "format": "cell-based, human", "conditions": "STS-treated 293T/17 cells"}, "HeLa-fR cells [3]": {"test_system": "HeLa-fR cells", "experiment": "TUNEL assay for DNA fragmentation, HeLa-fR cells", "format": "cell-based, human", "procedure": "DNA Fragmentation: PCD was induced (as described above) 24 hours after plating 300,000 cells/well in 6 well tissue culture plates (BD Biosciences). After indicated treatment times, TUNEL assays for DNA fragmentation were performed using the TUNEL/ApoBRDU assay kit (Invitrogen) according to the manufacturer's protocol. Percent DNA fragmentation was determined using flow cytometry on a Guava EasyCyte flow cytometer (Guava Technologies, Hayward, Calif.). Analysis of flow cytometry data was performed using FlowJo software (Treestar, Ashland, Oreg.)."}, "intracellular H2O2 [4]": {"test_system": "intracellular H2O2", "experiment": "Intracellular H2O2 by CM-H2DCFDA, MCF7-fR cells", "format": "cell-based, human"}, "MCF7-fR cells": {"test_system": "MCF7-fR cells", "experiment": "RLuc8:fLuc ratio in MCF7-fR cells (Dual-Glo)", "format": "cell-based, human", "procedure": "as §1, §2"}, "HeLa-fR cells [5]": {"test_system": "HeLa-fR cells", "experiment": "Western blot of fLuc and RLuc8 protein, HeLa-fR cells", "format": "cell-based, human", "conditions": "STS-treated cells pretreated with the inhibitor/scavenger", "procedure": "Following indicated culture conditions, HeLa-fR cells were washed 3 times with 1×PBS (pH7.4). Proteins were extracted using RIPA extraction buffer (50 mM Tris HCL, pH 7.4, 1% Triton X-100, 0.25% Na-deoxycholate, 150 mM NaCl, 1 mM EDTA and a Complete Mini Protease Inhibitor Cocktail Tablet (Roche)) at 4° C. for 30 minutes with constant agitation. Total protein concentrations were measured using a BCA assay (Pierce, Rockford, Ill., USA). […] Proteins separated by electrophoresis were transferred to nitrocellulose membranes in 1× Transfer Buffer (Bio-Rad) at 15V for 30 minutes. Membranes were blocked in Blocking Buffer for Fluorescent Western Blotting (Rockland Immunochemicals, Gilbertsville, Pa., USA) for 60 minutes. The membranes were incubated with anti-fLuc (Sigma), anti-rLuc (Millipore, Billerica, Mass.) or anti-β-actin (Abcam, Cambridge, Mass.) primary antibodies in blocking buffer overnight. […] The fluorescent signal from the membranes was imaged using the Odyssey Infrared Imaging System (Li-Cor Biosciences, Lincoln, Nebr., USA)."}}, "note": "Residues, ends and D or L forms follow the SMILES beside them. *: point of attachment. Cbz = O=C(OCc1ccccc1)*", "data": [{"compound": "CC[C@H](C)[C@H](NC(=O)[C@H]([C@@H](C)CC)N(C)C(C)=O)C(=O)N[C@H](C(=O)N[C@@H](CC(C)C)C(=O)[C@@]1(C)CO1)[C@@H](C)O", "note": "[epoxomicin]", "values": [{"measurement": "RLuc8:fLuc ratio of STS-treated cells with inhibitor/scavenger", "setting": "HeLa-fR cells [1]", "result": "increase in the RLuc8:fLuc ratio"}]}, {"compound": "COc1cccc2c1C(=O)c1c(O)c3c(c(O)c1C2=O)C[C@@](O)(C(=O)CO)C[C@@H]3O[C@H]1C[C@H](N)[C@H](O)[C@H](C)O1", "note": "[doxorubicin, Doxorubicin]", "values": [{"measurement": "RLuc8:fLuc bioluminescent ratio", "setting": "HeLa-fR cells [1]; HeLa-fR cells treated with the stress/cell death inducer alone", "result": "dose- and time-dependent increase"}, {"measurement": "caspase activity / caspase dependence of cell death", "setting": "caspases 3 and 7", "result": "caspase-dependent"}]}, {"compound": "Oc1ncnc2[nH]ncc12", "note": "[allopurinol]", "values": [{"measurement": "intracellular H2O2 levels, allopurinol prior to SSe vs SSe alone", "setting": "intracellular H2O2 [2]; HeLa-fR", "result": "decreased significantly (p<0.05)"}, {"measurement": "intracellular H2O2 (CM-H2DCFDA fluorescence) with inhibitor/scavenger", "setting": "intracellular H2O2 [2]; STS-treated HeLa-fR cells", "result": "decrease in CM-H2DCFDA fluorescence"}, {"measurement": "protective effect on fLuc", "setting": "HeLa-fR cells [1]; HeLa cells treated with camptothecin and doxorubicin", "result": "protective effect of allopurinol on fLuc is also evident"}, {"measurement": "RLuc8:fLuc ratio, allopurinol prior to SSe vs SSe alone", "setting": "HeLa-fR cells [1]; HeLa-fR", "result": "decreased significantly (p<0.05)"}, {"measurement": "RLuc8:fLuc ratio of STS-treated cells with inhibitor/scavenger", "setting": "HeLa-fR cells [1]", "result": "significant reduction (p<0.01)"}, {"measurement": "RLuc8:fLuc ratio, increasing doses of inhibitor/scavenger", "setting": "HeLa-fR cells [1]; pretreated 1 hour prior to 10 μM STS, 24 hr", "result": "reducing the Rluc8:fLuc ratio, in a dose-dependent manner"}, {"measurement": "RLuc8:fLuc ratio, Allo/PBS vs PBS/PBS groups", "setting": "HeLa-fR tumor xenografts", "result": "decreased slightly"}, {"measurement": "RLuc8:fLuc ratio, Allo/STS vs PBS/STS groups", "setting": "HeLa-fR tumor xenografts; inhibitor 1 hour before STS", "result": "significant reduction in the RLuc8:fLuc ratio (p<0.05)"}, {"measurement": "protective effect on fLuc", "setting": "293T/17-fR cells", "result": "protective effect of allopurinol on fLuc is also evident"}, {"measurement": "DNA fragmentation levels vs PBS-pretreated controls", "setting": "HeLa-fR cells [3]; 100 μM allopurinol 1 hour prior to 55 μM SSe for 24 hours", "result": "remained unchanged"}, {"measurement": "protection against cell death (TUNEL)", "setting": "HeLa-fR cells [3]; HeLa-fR pretreated with allopurinol prior to STS", "result": "did not provide protection against cell death"}, {"measurement": "H2O2 levels, allopurinol prior to resveratrol vs resveratrol alone", "setting": "intracellular H2O2 [4]", "result": "significantly reduced (p<0.01)"}, {"measurement": "RLuc8:fLuc ratio, allopurinol prior to resveratrol vs resveratrol alone", "setting": "MCF7-fR cells; MCF7-fR", "result": "significantly reduced (p<0.01)"}, {"measurement": "protective effect on fLuc", "setting": "MCF7-fR cells; STS-treated MCF7 cells", "result": "protective effect of allopurinol on fLuc is also evident"}, {"measurement": "fLuc protein level vs STS without inhibitor", "setting": "HeLa-fR cells [5]", "result": "higher levels of fLuc protein"}]}, {"compound": "O=S(=O)(O)c1cc(O)c(O)c(S(=O)(=O)O)c1", "note": "[Tiron]", "values": [{"measurement": "RLuc8:fLuc ratio of STS-treated cells with inhibitor/scavenger", "setting": "HeLa-fR cells [1]", "result": "none of the superoxide scavengers significantly reduced"}]}, {"compound": "OC[C@@H](O)[C@@H](O)[C@H](O)[C@H](O)CO", "note": "[mannitol]", "values": [{"measurement": "RLuc8:fLuc ratio of STS-treated cells with inhibitor/scavenger", "setting": "HeLa-fR cells [1]", "result": "did not reduce the Rluc8:fLuc ratio"}]}, {"compound": "CC(C)[C@H](NC(=O)OCc1ccccc1)C(=O)N[C@H](C=O)Cc1ccccc1", "note": "[Calpain Inhibitor III] (Cbz-Val-Phe-aldehyde)", "values": [{"measurement": "RLuc8:fLuc ratio, inhibitor on untreated (−STS) cells", "setting": "HeLa-fR cells [1]; HeLa-fR, no STS", "result": "increase in the Rluc8:fLuc ratio"}, {"measurement": "RLuc8:fLuc ratio of STS-treated cells with inhibitor/scavenger", "setting": "HeLa-fR cells [1]", "result": "none of these inhibitors significantly affected"}]}, {"compound": "Pepstatin A", "values": [{"measurement": "RLuc8:fLuc ratio of STS-treated cells with inhibitor/scavenger", "setting": "HeLa-fR cells [1]", "result": "none of these inhibitors significantly affected"}]}, {"compound": "CC1(C)CC(O)CC(C)(C)N1[O]", "note": "[TEMPOL]", "values": [{"measurement": "RLuc8:fLuc ratio of STS-treated cells with inhibitor/scavenger", "setting": "HeLa-fR cells [1]", "result": "none of the superoxide scavengers significantly reduced"}]}, {"compound": "MnTMPyP", "values": [{"measurement": "RLuc8:fLuc ratio of STS-treated cells with inhibitor/scavenger", "setting": "HeLa-fR cells [1]", "result": "none of the superoxide scavengers significantly reduced"}]}]}
